Usually inhibition stands for the percentage by which the read-out fell short of the control.

Common to all, as to test: biochemical
Common to all, as to design: Fluorogenic phosphatase assay, DiFMUP hydrolysis by recombinant PTPs, initial velocity, Ex/Em 355/460 nm
Holding throughout (conditions): read-out: Inhibition by 20 µM polyphyllin D (%)

The target of experiment [1] is T1, PTPN7 (HePTP) (Homo sapiens, UniProt P35236).
T1 construct: 1-360
T1 sequence (P35236 1-360): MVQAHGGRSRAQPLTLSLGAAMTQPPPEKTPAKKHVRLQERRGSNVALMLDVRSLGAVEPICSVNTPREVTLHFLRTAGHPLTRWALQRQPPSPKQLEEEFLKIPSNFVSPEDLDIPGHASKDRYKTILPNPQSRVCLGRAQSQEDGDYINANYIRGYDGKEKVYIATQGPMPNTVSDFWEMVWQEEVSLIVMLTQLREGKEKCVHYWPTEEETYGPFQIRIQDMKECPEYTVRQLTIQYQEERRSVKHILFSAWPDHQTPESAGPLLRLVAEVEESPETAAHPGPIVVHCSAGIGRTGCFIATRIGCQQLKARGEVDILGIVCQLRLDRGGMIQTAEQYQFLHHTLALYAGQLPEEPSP
The method, then:
(§1) Enzymatic reactions were initiated by the addition of SHP2 (final concentration of 10 nM) to a solution of each of the 658 phytochemical compounds (final concentration of 20 µM) in reaction buffer (20 mM bis-tris pH 6.0, 150 mM NaCl, 2.5 mM dithiothreitol, and 0.01% Triton X-100) containing DiFMUP (final concentration of 140 µM). Changes in the fluorescence intensities were measured continuously for 10 min at Ex/Em = 355/460 nm on a VictorTM X4 multilabel plate reader. Enzyme inhibition was estimated by comparing the reaction velocity in the presence of each compound with that in the absence of any compound. Inhibition of the other PTPs was measured in the same way. Next, we established a screening strategy using a DiFMUP substrate to identify a natural product that inhibits SHP2 activity. Initially, we screened 658 compounds at 20 µM using a 96-well plate system (Figure 2A). […] The selected compounds were tested at 20 µM for SHP2 inhibition, and 14 additional non-receptor-type PTPs (PTP1B, TCPTP, PTPH1, STEP, SHP1, HePTP, PTP-MEG2, PTP-PEST, PTP-BAS, PTP36, PTP-HSCF, PTPD1, LYP, and HD-PTP) were used to investigate the inhibition selectivity. The results were visualized using a heat map analysis by GraphPad Prism (Figure 2B and Table S2 in Supplementary Materials). To identify new SHP2 anticancer natural products, we first performed cloning to express SHP2 protein and then purified it. PTPN11 (Gene ID: 5781) encoding human SHP2 (amino acids sequences 1 to 526) with several extra amino acids were cloned into the MBP-pET 28a (+) vector, which was successfully used to overexpress PTPs with enhanced solubility in an Escherichia coli expression system. Information on amino acids for 15 non-receptor-type PTPs including SHP2 is summarized in Table S3 in the Supplementary Materials. SHP2 was overexpressed in RosettaTM (DE3) and purified using a metal affinity resin (Figure S1 in Supplementary Materials). […] The kcat, KM, and kcat/KM values were determined to be 270 min^−1, 70 μM, and 3.9 μM^−1min^−1, respectively, using the Lineweaver–Burk plot analysis (Table S1 in Supplementary Materials).

Experiment [2] concerns the target T2, PTPN23 (HD-PTP) (Homo sapiens, UniProt Q9H3S7).
T2 construct: 1179-1463
The method, then: as §1

The target in experiment [3] is T3, PTPN22 (LYP) (Homo sapiens, UniProt Q9Y2R2).
T3 construct: 1-326
T3 sequence (Q9Y2R2 1-807): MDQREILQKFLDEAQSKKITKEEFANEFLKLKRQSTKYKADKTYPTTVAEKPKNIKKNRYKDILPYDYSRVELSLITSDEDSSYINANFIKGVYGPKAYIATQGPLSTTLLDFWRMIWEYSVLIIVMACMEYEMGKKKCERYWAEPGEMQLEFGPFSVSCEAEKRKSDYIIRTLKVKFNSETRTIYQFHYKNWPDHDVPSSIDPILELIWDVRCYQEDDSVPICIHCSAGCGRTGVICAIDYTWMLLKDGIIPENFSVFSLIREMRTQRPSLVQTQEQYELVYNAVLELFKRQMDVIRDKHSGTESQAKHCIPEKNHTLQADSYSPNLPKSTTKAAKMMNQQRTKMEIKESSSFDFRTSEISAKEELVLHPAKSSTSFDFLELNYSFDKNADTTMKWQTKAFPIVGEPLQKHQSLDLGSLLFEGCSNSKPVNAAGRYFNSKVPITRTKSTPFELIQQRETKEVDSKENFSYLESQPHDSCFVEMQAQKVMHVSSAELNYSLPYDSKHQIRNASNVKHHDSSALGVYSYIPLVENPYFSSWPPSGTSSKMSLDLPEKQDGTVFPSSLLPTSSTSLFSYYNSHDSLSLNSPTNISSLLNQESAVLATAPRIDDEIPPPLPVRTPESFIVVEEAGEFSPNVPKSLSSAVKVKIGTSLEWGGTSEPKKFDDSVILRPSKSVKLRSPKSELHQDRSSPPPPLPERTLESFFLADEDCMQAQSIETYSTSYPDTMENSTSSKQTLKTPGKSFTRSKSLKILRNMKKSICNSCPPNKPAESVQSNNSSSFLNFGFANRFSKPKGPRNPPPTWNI
The method, then: as §1

T2 sequence (Q9H3S7 whole entry): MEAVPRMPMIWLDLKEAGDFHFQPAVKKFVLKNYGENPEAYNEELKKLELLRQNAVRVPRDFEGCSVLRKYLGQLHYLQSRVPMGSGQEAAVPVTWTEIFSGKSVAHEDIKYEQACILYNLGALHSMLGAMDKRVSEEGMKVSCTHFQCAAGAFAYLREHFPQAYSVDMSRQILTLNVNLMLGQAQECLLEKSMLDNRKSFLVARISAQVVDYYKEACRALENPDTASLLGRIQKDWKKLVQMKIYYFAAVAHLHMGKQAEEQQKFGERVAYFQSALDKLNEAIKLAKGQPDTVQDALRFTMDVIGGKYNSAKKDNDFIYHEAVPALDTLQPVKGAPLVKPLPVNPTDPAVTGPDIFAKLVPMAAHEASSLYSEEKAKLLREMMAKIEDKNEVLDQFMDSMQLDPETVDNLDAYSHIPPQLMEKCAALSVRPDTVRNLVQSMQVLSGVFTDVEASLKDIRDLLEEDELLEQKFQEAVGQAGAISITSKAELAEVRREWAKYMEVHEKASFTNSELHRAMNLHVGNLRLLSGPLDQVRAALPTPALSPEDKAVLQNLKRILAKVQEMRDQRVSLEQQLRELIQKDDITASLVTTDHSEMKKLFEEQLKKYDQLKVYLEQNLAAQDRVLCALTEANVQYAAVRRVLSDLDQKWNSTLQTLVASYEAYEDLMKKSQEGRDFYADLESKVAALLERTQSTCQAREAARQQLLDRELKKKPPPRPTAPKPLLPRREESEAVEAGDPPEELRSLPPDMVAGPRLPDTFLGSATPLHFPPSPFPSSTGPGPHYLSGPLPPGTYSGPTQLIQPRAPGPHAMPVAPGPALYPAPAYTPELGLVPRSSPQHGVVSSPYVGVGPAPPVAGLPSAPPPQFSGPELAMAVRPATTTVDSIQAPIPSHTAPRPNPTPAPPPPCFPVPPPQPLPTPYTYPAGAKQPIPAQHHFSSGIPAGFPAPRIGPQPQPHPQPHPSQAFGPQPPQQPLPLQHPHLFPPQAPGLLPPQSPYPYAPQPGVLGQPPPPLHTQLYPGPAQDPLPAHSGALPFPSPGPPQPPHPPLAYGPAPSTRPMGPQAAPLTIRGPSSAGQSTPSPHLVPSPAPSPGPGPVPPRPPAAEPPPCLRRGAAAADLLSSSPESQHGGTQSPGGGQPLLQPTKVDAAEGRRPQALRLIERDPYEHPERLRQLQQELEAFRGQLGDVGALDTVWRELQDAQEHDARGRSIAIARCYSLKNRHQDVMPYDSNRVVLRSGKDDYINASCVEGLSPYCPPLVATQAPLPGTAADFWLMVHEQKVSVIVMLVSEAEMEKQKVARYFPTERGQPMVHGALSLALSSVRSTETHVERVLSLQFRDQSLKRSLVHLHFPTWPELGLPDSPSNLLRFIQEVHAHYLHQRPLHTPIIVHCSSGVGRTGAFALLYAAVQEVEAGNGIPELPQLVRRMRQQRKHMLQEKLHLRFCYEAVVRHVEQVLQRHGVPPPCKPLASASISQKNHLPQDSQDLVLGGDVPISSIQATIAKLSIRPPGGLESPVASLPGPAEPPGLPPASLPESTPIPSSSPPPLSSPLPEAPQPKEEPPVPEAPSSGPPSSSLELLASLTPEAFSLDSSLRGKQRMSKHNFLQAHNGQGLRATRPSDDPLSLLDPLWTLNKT

`C[C@@H]1CC[C@@]2(OC1)O[C@H]1C[C@H]3[C@@H]4CC=C5C[C@@H](O[C@@H]6O[C@H](CO)[C@@H](O[C@@H]7O[C@@H](CO)[C@H](O)[C@H]7O)[C@H](O)[C@H]6O[C@@H]6O[C@@H](C)[C@H](O)[C@@H](O)[C@H]6O)CC[C@]5(C)[C@H]4CC[C@]3(C)[C@H]1[C@@H]2C` [polyphyllin D]: the inhibition at 20 µM in experiment [1] is 9.2%; in experiment [2], 0%; in experiment [3], 0.1%.

Values taken from article PMC7915588, “Polyphyllin D Shows Anticancer Effect through a Selective Inhibition of Src Homology Region 2-Containing Protein Tyrosine Phosphatase-2 (SHP2)” (Molecules, 2021).
